Laboratory results published in ChEMBL document CHEMBL2169878 (J Med Chem, 2012).
Activity calls are given as the source filed them. The rule behind the calls is not given here.

Columns and labels:
[1] = Cytotoxicity against human HepG2 cells after 24 hrs by neutral red dye uptake assay; assay type: cell-based; conditions: read-out: TC50
Salmonella typhimurium [2] = assay: Mutagenicity against Salmonella typhimurium TA100 assessed as revertants at 8 uM incubated for 90 mins followed by drug washout measured after 2 days relative to positive control; assay type: toxicity, organism-based; conditions: salmonella enterica subsp. enterica serovar typhimurium
Plasmodium berghei [3] = assay: Antimalarial activity against Plasmodium berghei ANKA expressing GFP infected in mouse assessed as mean survival days at 50 mg/kg, po administered QD for 3 days (reference value: 6 to 7 days); assay type: functional
Salmonella typhimurium [4] = assay: Mutagenicity against Salmonella typhimurium TA100 assessed as revertants at 3 uM incubated for 90 mins followed by drug washout measured after 2 days relative to positive control; assay type: toxicity, organism-based; conditions: salmonella enterica subsp. enterica serovar typhimurium, 1.5 h
Plasmodium falciparum [5] = assay: Antiplasmodial activity against chloroquine-resistant Plasmodium falciparum K1 infected in human erythrocytes assessed as inhibition of [3H]hypoxanthine incorporation incubated for 48 hrs prior to [3H]hypoxanthine addition measured after 48 hrs by liquid scintillation counting; assay type: functional, organism-based
[6] = molecular target: Chloroquine resistance transporter (Plasmodium falciparum, UniProt Q9N623); assay: Inhibition of chloroquine-resistant Plasmodium falciparum Dd2 CRT expressed in Xenopus laevis oocyte assessed as inhibition of [3H]chloroquine uptake measured from 1 to 2 hrs
[7] = molecular target: T1, Chloroquine resistance transporter (Plasmodium falciparum) (UniProt Q9N623); assay: Inhibition of chloroquine-sensitive Plasmodium falciparum D10 CRT expressed in Xenopus laevis oocyte assessed as inhibition of [3H]chloroquine uptake at 100 uM measured from 1 to 2 hrs
T1 sequence (whole entry): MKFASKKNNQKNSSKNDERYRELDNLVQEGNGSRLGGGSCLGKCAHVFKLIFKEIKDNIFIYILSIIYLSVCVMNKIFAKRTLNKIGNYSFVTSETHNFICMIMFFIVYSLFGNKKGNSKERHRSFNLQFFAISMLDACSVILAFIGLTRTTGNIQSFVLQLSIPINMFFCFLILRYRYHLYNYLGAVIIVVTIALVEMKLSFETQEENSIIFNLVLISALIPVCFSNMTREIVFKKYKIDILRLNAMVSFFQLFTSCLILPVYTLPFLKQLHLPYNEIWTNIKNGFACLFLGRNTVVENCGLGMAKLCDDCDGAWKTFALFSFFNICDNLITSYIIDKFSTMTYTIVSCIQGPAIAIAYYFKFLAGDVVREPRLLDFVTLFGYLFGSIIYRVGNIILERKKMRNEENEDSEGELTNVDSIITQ

Plasmodium berghei [8] = assay: Antimalarial activity against Plasmodium berghei ANKA expressing GFP infected in mouse assessed as reduction in parasitemia at 30 mg/kg, po administered 24 hrs post-infection measured 48 hrs post-dosing by flow cytometric analysis; assay type: functional; set-up: scale not given: the % may be the effect or the level left
Plasmodium berghei [9] = assay: Antimalarial activity against Plasmodium berghei ANKA expressing GFP infected in mouse assessed as cure from infection at 30 mg/kg, po administered QD for 3 days measured on day 30; assay type: functional, organism-based; set-up: dose 30 mg/kg
Salmonella typhimurium [10] = assay: Mutagenicity against Salmonella typhimurium TA98 assessed as revertants at 34 uM incubated for 90 mins followed by drug washout measured after 2 days relative to positive control; assay type: toxicity, organism-based; conditions: salmonella enterica subsp. enterica serovar typhimurium, 1.5 h
Plasmodium berghei [11] = assay: Antimalarial activity against Plasmodium berghei ANKA expressing GFP infected in mouse assessed as mean survival days at 30 mg/kg, po administered 24 hrs post-infection (reference value: 6 to 7 days); assay type: functional
Salmonella typhimurium [12] = assay: Mutagenicity against Salmonella typhimurium TA100 assessed as revertants at 34 uM incubated for 90 mins followed by drug washout measured after 2 days relative to positive control; assay type: toxicity, organism-based; conditions: salmonella enterica subsp. enterica serovar typhimurium
Plasmodium berghei [13] = assay: Antimalarial activity against Plasmodium berghei ANKA expressing GFP infected in mouse assessed as reduction in parasitemia at 30 mg/kg, po administered at 6,24,48 and 72 hrs post-infection measured 24 hrs post-final dosing by flow cytometric analysis; assay type: functional; set-up: scale not given: the % may be the effect or the level left
Plasmodium falciparum [14] = assay: Antiplasmodial activity against chloroquine-sensitive Plasmodium falciparum D10 infected in human RBC after 72 hrs by parasite lactate dehydrogenase assay; assay type: functional, organism-based; conditions: D10, 72 h
Salmonella typhimurium [15] = assay: Mutagenicity against Salmonella typhimurium TA98 assessed as revertants at 2 uM incubated for 90 mins followed by drug washout measured after 2 days relative to positive control; assay type: toxicity, organism-based; conditions: salmonella enterica subsp. enterica serovar typhimurium, 1.5 h
[16] = molecular target: T1, Chloroquine resistance transporter (Plasmodium falciparum); assay: Inhibition of chloroquine-resistant Plasmodium falciparum Dd2 CRT expressed in Xenopus laevis oocyte assessed as inhibition of [3H]chloroquine uptake at 100 uM measured from 1 to 2 hrs
Plasmodium berghei [17] = assay: Antimalarial activity against Plasmodium berghei ANKA expressing GFP infected in mouse assessed as mean survival days at 100 mg/kg, po administered 24 hrs post-infection (reference value: 6 to 7 days); assay type: functional
Plasmodium berghei [18] = assay: Antimalarial activity against Plasmodium berghei ANKA expressing GFP infected in mouse assessed as reduction in parasitemia at 100 mg/kg, po administered 24 hrs post-infection measured 48 hrs post-dosing by flow cytometric analysis; assay type: functional; set-up: scale not given: the % may be the effect or the level left
Plasmodium falciparum [19] = assay: Antiplasmodial activity against chloroquine-resistant Plasmodium falciparum W2 infected in human RBC after 72 hrs by parasite lactate dehydrogenase assay; assay type: functional, organism-based; conditions: W2, 72 h
Plasmodium falciparum [20] = assay: Resistance ratio of IC50 for chloroquine-resistant Plasmodium falciparum K1 to IC50 for chloroquine-sensitive Plasmodium falciparum NF54; assay type: functional
Salmonella typhimurium [21] = assay: Mutagenicity against Salmonella typhimurium TA98 assessed as revertants at 8 uM incubated for 90 mins followed by drug washout measured after 2 days relative to positive control; assay type: toxicity, organism-based; conditions: salmonella enterica subsp. enterica serovar typhimurium, 1.5 h
Salmonella typhimurium [22] = assay: Mutagenicity against Salmonella typhimurium TA98 assessed as revertants at 1 uM incubated for 90 mins followed by drug washout measured after 2 days relative to positive control; assay type: toxicity, organism-based; conditions: salmonella enterica subsp. enterica serovar typhimurium
Plasmodium berghei [23] = assay: Antimalarial activity against Plasmodium berghei ANKA expressing GFP infected in mouse assessed as cure from infection at 30 mg/kg, po administered 24 hrs post-infection measured on day 30; assay type: functional, organism-based; set-up: dose 30 mg/kg
Plasmodium berghei [24] = assay: Antimalarial activity against Plasmodium berghei ANKA expressing GFP infected in mouse assessed as cure from infection at 100 mg/kg, po administered 24 hrs post-infection measured on day 30; assay type: functional, organism-based; set-up: dose 100 mg/kg
Plasmodium berghei [25] = assay: Antimalarial activity against Plasmodium berghei ANKA expressing GFP infected in mouse assessed as mean survival days at 30 mg/kg, po administered at 6,[…],[…] and 72 hrs post-infection (reference value: 6 to 7 days); assay type: functional
Plasmodium berghei [26] = assay: Antimalarial activity against Plasmodium berghei ANKA expressing GFP infected in mouse assessed as reduction in parasitemia at 50 mg/kg, po administered QD for 3 days measured 24 hrs post-final dosing by flow cytometric analysis; assay type: functional; set-up: scale not given: the % may be the effect or the level left
Salmonella typhimurium [27] = assay: Mutagenicity against Salmonella typhimurium TA100 assessed as revertants at 1 uM incubated for 90 mins followed by drug washout measured after 2 days relative to positive control; assay type: toxicity, organism-based; conditions: salmonella enterica subsp. enterica serovar typhimurium, 1.5 h
Plasmodium falciparum [28] = assay: Resistance ratio of IC50 for chloroquine-resistant Plasmodium falciparum W2 to IC50 for chloroquine-sensitive Plasmodium falciparum D10; assay type: functional
Plasmodium berghei [29] = assay: Antimalarial activity against Plasmodium berghei ANKA expressing GFP infected in mouse assessed as cure from infection at 50 mg/kg, po administered QD for 3 days measured on day 30; assay type: functional, organism-based; set-up: dose 50 mg/kg
[30] = Cytotoxicity against mouse NIH3T3 cells after 24 hrs by neutral red dye uptake assay; assay type: cell-based; conditions: read-out: TC50
Salmonella typhimurium [31] = assay: Mutagenicity against Salmonella typhimurium TA100 assessed as revertants at 17 uM incubated for 90 mins followed by drug washout measured after 2 days relative to positive control; assay type: toxicity, organism-based; conditions: salmonella enterica subsp. enterica serovar typhimurium
Salmonella typhimurium [32] = assay: Mutagenicity against Salmonella typhimurium TA98 assessed as revertants at 4 uM incubated for 90 mins followed by drug washout measured after 2 days relative to positive control; assay type: toxicity, organism-based; conditions: salmonella enterica subsp. enterica serovar typhimurium
Plasmodium falciparum [33] = assay: Antiplasmodial activity against chloroquine-sensitive Plasmodium falciparum NF54 infected in human erythrocytes assessed as inhibition of [3H]hypoxanthine incorporation incubated for 48 hrs prior to [3H]hypoxanthine addition measured after 48 hrs by liquid scintillation counting; assay type: functional, organism-based
Salmonella typhimurium [34] = assay: Mutagenicity against Salmonella typhimurium TA98 assessed as revertants at 17 uM incubated for 90 mins followed by drug washout measured after 2 days relative to positive control; assay type: toxicity, organism-based; conditions: salmonella enterica subsp. enterica serovar typhimurium
Plasmodium berghei [35] = assay: Antimalarial activity against Plasmodium berghei ANKA expressing GFP infected in mouse assessed as reduction in parasitemia at 30 mg/kg, po administered QD for 3 days measured 24 hrs post-final dosing by flow cytometric analysis; assay type: functional; set-up: scale not given: the % may be the effect or the level left
Plasmodium berghei [36] = assay: Antimalarial activity against Plasmodium berghei ANKA expressing GFP infected in mouse assessed as cure from infection at 30 mg/kg, po administered at 6,24,48 and 72 hrs post-infection measured on day 30; assay type: functional, organism-based; set-up: dose 30 mg/kg
Plasmodium berghei [37] = assay: Antimalarial activity against Plasmodium berghei ANKA expressing GFP infected in mouse assessed as mean survival days at 30 mg/kg, po administered QD for 3 days (reference value: 6 to 7 days); assay type: functional
Salmonella typhimurium [38] = assay: Mutagenicity against Salmonella typhimurium TA100 assessed as revertants at 1.5 uM incubated for 90 mins followed by drug washout measured after 2 days relative to positive control; assay type: toxicity, organism-based; conditions: salmonella enterica subsp. enterica serovar typhimurium, 1.5 h
Heart [39] = assay: Cardiotoxicity against Sprague-Dawley rat Langendorff perfused heart assessed as QT time interval at 30 uM by electrophysiological analysis (reference value: 68.51 2.73 ms); assay type: toxicity, tissue-based
Heart [40] = assay: Cardiotoxicity against Sprague-Dawley rat Langendorff perfused heart assessed as QT time interval at 10 uM by electrophysiological analysis (reference value: 68.51 2.73 ms); assay type: toxicity, tissue-based

Q: With `Clc1cccc(C(Nc2ccnc3cc(Cl)ccc23)c2ccc(CN3CCNCC3)cc2)c1` (racemic) as the molecule, how does the CC50 at 24 h [1] read?
A: Its CC50 at 24 h is < 4000 nM.

Q: What about the Activity (Salmonella typhimurium [2]) of the same molecule?
A: Its Activity is 5%.

Q: What about the MSD (Plasmodium berghei [3]) of the same molecule?
A: Its MSD is 30 days.

Q: And the Activity (Salmonella typhimurium [4])?
A: Its Activity is 3%.

Q: And the IC50 (Plasmodium falciparum [5])?
A: Its IC50 is 23 nM.

Q: And the IC50 [6]?
A: Its IC50 is 10500 nM.

Q: What about the inhibition [7] of the same molecule?
A: Its inhibition is “inactive”.

Q: What about the Activity (Plasmodium berghei [8]) of the same molecule?
A: The Activity was 99.7%.

Q: And the Activity (Plasmodium berghei [9])?
A: Its Activity is “Active”.

Q: What about the Activity (Salmonella typhimurium [10]) of the same molecule?
A: The Activity was 4%.

Q: And the MSD (Plasmodium berghei [11])?
A: Its MSD is 24 days.

Q: What about the Activity (Salmonella typhimurium [12]) of the same molecule?
A: The Activity was 2%.

Q: What about the Activity (Plasmodium berghei [13]) of the same molecule?
A: Its Activity is 99.9%.

Q: And the IC50 (Plasmodium falciparum [14])?
A: Its IC50 is 25 nM.

Q: And the Activity (Salmonella typhimurium [15])?
A: The Activity was 7%.

Q: What about the inhibition [16] of the same molecule?
A: Its inhibition is “Active”.

Q: And the MSD (Plasmodium berghei [17])?
A: Its MSD is 29.6 days.

Q: What about the Activity (Plasmodium berghei [18]) of the same molecule?
A: Its Activity is 99.6%.

Q: What about the IC50 (Plasmodium falciparum [19]) of the same molecule?
A: Its IC50 is 33 nM.

Q: And the “Ratio IC50” value (Plasmodium falciparum [20])?
A: The value was 1.2.

Q: What about the Activity (Salmonella typhimurium [21]) of the same molecule?
A: Its Activity is 16%.

Q: What about the Activity (Salmonella typhimurium [22]) of the same molecule?
A: The Activity was 9%.

Q: What about the Activity (Plasmodium berghei [23]) of the same molecule?
A: The Activity was “inactive”.

Q: And the Activity (Plasmodium berghei [24])?
A: The Activity was “Active”.

Q: And the MSD (Plasmodium berghei [25])?
A: The MSD was 30 days.

Q: And the Activity (Plasmodium berghei [26])?
A: Its Activity is 99.8%.

Q: What about the Activity (Salmonella typhimurium [27]) of the same molecule?
A: The Activity was 6%.

Q: And the “Ratio IC50” value (Plasmodium falciparum [28])?
A: Its value is 1.4.

Q: What about the Activity (Plasmodium berghei [29]) of the same molecule?
A: Its Activity is “inactive”.

Q: What about the CC50 at 24 h [30] of the same molecule?
A: The CC50 at 24 h was 16000 nM.

Q: What about the Activity (Salmonella typhimurium [31]) of the same molecule?
A: The Activity was 7%.

Q: What about the Activity (Salmonella typhimurium [32]) of the same molecule?
A: The Activity was 4%.

Q: And the IC50 (Plasmodium falciparum [33])?
A: Its IC50 is 19 nM.

Q: What about the Activity (Salmonella typhimurium [34]) of the same molecule?
A: Its Activity is 11%.

Q: What about the Activity (Plasmodium berghei [35]) of the same molecule?
A: Its Activity is 99.8%.

Q: And the Activity (Plasmodium berghei [36])?
A: Its Activity is “Active”.

Q: And the MSD (Plasmodium berghei [37])?
A: Its MSD is 30 days.

Q: What about the Activity (Salmonella typhimurium [38]) of the same molecule?
A: The Activity was 5%.

Q: What does the source list for `CC(C)(C)c1ccc(C(O)CCCN2CCC(C(O)(c3ccccc3)c3ccccc3)CC2)cc1` (stereo not given) [TERFENADINE]?
A: Time (Heart [39]): 125 ms; Time (Heart [40]): 99.83 ms
